Measurements published in EPA's CvTdb concentration-time database.

Key:
Test in all cases: concentration in plasma after dosing
Rat [1] = details: dosed: Formamide, 10 mg/kg, iv, Male, F344
Rat [2] = details: dosed: Formamide, 10 mg/kg, iv, Male, F344; remark: listed apart in the source
Rat [3] = details: 0.5 h; dosed: Formamide; 10 mg/kg; iv; Male; F344
Rat [4] = details: dosed: Formamide, 10 mg/kg, iv, Female, F344
Rat [5] = details: dosed: Formamide, 10 mg/kg, iv, Male, F344; remark: listed apart in the source
Rat [6] = details: dosed: Formamide, 30 mg/kg, iv, Female, F344
Rat [7] = details: dosed: Formamide, 10 mg/kg, iv, Male, F344; remark: listed apart in the source
Rat [8] = details: dosed: Formamide, 30 mg/kg, iv, Female, F344; remark: listed apart in the source
Rat [9] = details: 5 h; dosed: Formamide; 10 mg/kg; iv; Male; F344
Rat [10] = details: 5 h; dosed: Formamide; 10 mg/kg; iv; Male; F344; remark: listed apart in the source
Rat [11] = details: dosed: Formamide, 10 mg/kg, iv, Male, F344; remark: listed apart in the source
Rat [12] = details: 2 h; dosed: Formamide; 10 mg/kg; iv; Male; F344
Rat [13] = details: dosed: Formamide, 10 mg/kg, iv, Female, F344; remark: listed apart in the source
Rat [14] = details: dosed: Formamide, 30 mg/kg, iv, Female, F344; remark: listed apart in the source
Rat [15] = details: 2 h; dosed: Formamide; 10 mg/kg; iv; Male; F344; remark: listed apart in the source
Rat [16] = details: dosed: Formamide, 10 mg/kg, iv, Male, F344; remark: listed apart in the source
Rat [17] = details: dosed: Formamide, 10 mg/kg, iv, Female, Harlan Sprague-Dawley
Rat [18] = details: dosed: Formamide, 10 mg/kg, iv, Male, F344; remark: listed apart in the source
Rat [19] = details: dosed: Formamide, 10 mg/kg, iv, Male, F344; remark: listed apart in the source
Rat [20] = details: dosed: Formamide, 10 mg/kg, iv, Male, F344; remark: listed apart in the source
Rat [21] = details: 5 h; dosed: Formamide; 10 mg/kg; iv; Male; F344; remark: listed apart in the source
Rat [22] = details: dosed: Formamide, 10 mg/kg, iv, Male, F344; remark: listed apart in the source
Rat [23] = details: dosed: Formamide, 10 mg/kg, iv, Male, F344; remark: listed apart in the source
Rat [24] = details: dosed: Formamide, 10 mg/kg, iv, Male, F344; remark: listed apart in the source
Rat [25] = details: 0.5 h; dosed: Formamide; 10 mg/kg; iv; Male; F344; remark: listed apart in the source
Rat [26] = details: dosed: Formamide, 30 mg/kg, iv, Female, F344; remark: listed apart in the source
Rat [27] = details: dosed: Formamide, 10 mg/kg, iv, Male, F344; remark: listed apart in the source
Rat [28] = details: 0.5 h; dosed: Formamide; 30 mg/kg; iv; Female; F344
Rat [29] = details: 2 h; dosed: Formamide; 10 mg/kg; iv; Male; F344; remark: listed apart in the source
Rat [30] = details: dosed: Formamide, 10 mg/kg, iv, Male, F344; remark: listed apart in the source
Rat [31] = details: dosed: Formamide, 30 mg/kg, iv, Female, F344; remark: listed apart in the source
Rat [32] = details: dosed: Formamide, 10 mg/kg, iv, Male, F344; remark: listed apart in the source
Rat [33] = details: dosed: Formamide, 10 mg/kg, iv, Male, F344; remark: listed apart in the source
Rat [34] = details: 2 h; dosed: Formamide; 10 mg/kg; iv; Male; F344; remark: listed apart in the source
Rat [35] = details: dosed: Formamide, 30 mg/kg, iv, Female, F344; remark: listed apart in the source
Rat [36] = details: 3 h; dosed: Formamide; 10 mg/kg; iv; Male; F344
Rat [37] = details: 5 h; dosed: Formamide; 10 mg/kg; iv; Male; F344; remark: listed apart in the source
Rat [38] = details: dosed: Formamide, 10 mg/kg, iv, Female, Harlan Sprague-Dawley; remark: listed apart in the source
Rat [39] = details: 0.5 h; dosed: Formamide; 10 mg/kg; iv; Female; Harlan Sprague-Dawley
Rat [40] = details: 0.5 h; dosed: Formamide; 10 mg/kg; iv; Female; Harlan Sprague-Dawley; remark: listed apart in the source
Rat [41] = details: dosed: Formamide, 30 mg/kg, iv, Female, F344; remark: listed apart in the source
Rat [42] = details: dosed: Formamide, 10 mg/kg, iv, Male, F344; remark: listed apart in the source
Rat [43] = details: dosed: Formamide, 10 mg/kg, iv, Male, F344; remark: listed apart in the source
Rat [44] = details: dosed: Formamide, iv
Rat [45] = details: 2 h; dosed: Formamide; 10 mg/kg; iv; Male; F344; remark: listed apart in the source

NC=O [Formamide]
Details	concentration in plasma [µg/mL]
Rat [1], 8 h	5.7
Rat [1], 12 h	6.8
Rat [2], 0.25 h	6.9
Rat [2], 24 h	2.9
Rat [4], 10 min	12.5
Rat [4], 18 h	3.3
Rat [5], 5 min	11.2
Rat [5], 36 h	1.4
Rat [6], 5 min	43.9
Rat [6], 36 h	2.5
Rat [7], 1 h	13.5
Rat [7], 3 h	13.3
Rat [8], 0.25 h	16.1
Rat [8], 24 h	10.1
Rat [11], 0.25 h	13.3
Rat [11], 24 h	3.9
Rat [13], 10 min	8.5
Rat [13], 18 h	2.9
Rat [14], 8 h	26.8
Rat [14], 12 h	22.6
Rat [16], 10 min	10.7
Rat [16], 18 h	2.9
Rat [17], 0.25 h	13
Rat [17], 24 h	2.1
Rat [18], 8 h	8
Rat [18], 12 h	6.7
Rat [19], 8 h	7.1
Rat [19], 12 h	5.6
Rat [20], 1 h	13.4
Rat [20], 3 h	11.7
Rat [22], 5 min	12.9
Rat [22], 36 h	2.2
Rat [23], 1 h	12.7
Rat [23], 3 h	12.8
Rat [24], 5 min	11.9
Rat [24], 36 h	2
Rat [26], 8 h	27.5
Rat [26], 12 h	22.8
Rat [27], 1 h	14.5
Rat [27], 3 h	12.4
Rat [30], 10 min	15.4
Rat [30], 18 h	4.7
Rat [31], 0.5 h	44.7
Rat [31], 48 h	1.6
Rat [32], 5 min	13.7
Rat [32], 36 h	3.1
Rat [33], 8 h	9.2
Rat [33], 12 h	6.7
Rat [35], 5 min	39.5
Rat [35], 36 h	3.4
Rat [38], 0.25 h	14.7
Rat [38], 24 h	2.9
Rat [41], 0.25 h	17.6
Rat [41], 24 h	7.7
Rat [42], 8 h	8.6
Rat [42], 12 h	5.1
Rat [43], 5 min	2.1
Rat [43], 36 h	2.1

Details	concentration in plasma [µg/mL]
Rat [3]	13.4
Rat [9]	10.5
Rat [10]	9.6
Rat [12]	12.4
Rat [15]	14.1
Rat [21]	13.7
Rat [25]	11.1
Rat [28]	39.7
Rat [29]	12.8
Rat [34]	12.6
Rat [36]	12
Rat [37]	13.4
Rat [39]	11.1
Rat [40]	13.5
Rat [45]	13

concentration in plasma [µg/mL], Rat [44]
Details	Female	Male
0.25 h, 10 mg/kg, F344	–	7.1
0.25 h, 10 mg/kg, Harlan Sprague-Dawley	13.6	–
0.25 h, 30 mg/kg, F344	37.1	–
0.5 h, 10 mg/kg, F344	–	14.1
0.5 h, 10 mg/kg, Harlan Sprague-Dawley	9.3	–
0.5 h, 30 mg/kg, F344	28.2	–
1 h, 10 mg/kg, F344	–	14.7
2 h, 10 mg/kg, F344	–	12.5
3 h, 10 mg/kg, F344	–	13.7
5 h, 10 mg/kg, F344	–	14.2
5 h, 10 mg/kg, Harlan Sprague-Dawley	13	–
5 min, 10 mg/kg, F344	–	11.8
5 min, 30 mg/kg, F344	46.5	–
8 h, 10 mg/kg, F344	–	8.2
8 h, 30 mg/kg, F344	25	–
10 min, 10 mg/kg, F344	3.5	14.2
12 h, 10 mg/kg, F344	–	6.3
12 h, 30 mg/kg, F344	21.4	–
18 h, 10 mg/kg, F344	3.4	4
24 h, 10 mg/kg, F344	–	3.8
24 h, 10 mg/kg, Harlan Sprague-Dawley	2.3	–
24 h, 30 mg/kg, F344	7.9	–
36 h, 10 mg/kg, F344	–	2.3
36 h, 30 mg/kg, F344	4.3	–
48 h, 30 mg/kg, F344	1.2	–
